Reference: ChEMBL document CHEMBL1201862, “PubChem BioAssay data set” (2004)
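Method: 48-hour compound exposure of cells in 96-well plates, five concentrations, linear interpolation of endpoints. Abbreviation: GI50, concentration required for 50% inhibition of growth.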 Calls of active or inactive are those of the source. Rule as the data show it: active = GI50 up to about 1.1 µM and inactive = higher.

How the values were obtained:
Assay in all cases: DTP human tumour cell line panel, 48 h
[1] = system: NCI-H23
[2] = system: CCRF-CEM
[3] = system: SK-OV-3
[4] = system: PC-3
[5] = system: SK-MEL-28
[6] = system: HOP-92
[7] = system: UACC-62
[8] = system: SNB-19
[9] = system: OVCAR-4
[10] = system: BT-549
[11] = system: OVCAR-5
[12] = system: HOP-62
[13] = system: SR
[14] = system: HCT-116
[15] = system: HL-60
[16] = system: COLO 205
[17] = system: OVCAR-3
[18] = system: RPMI-8226
[19] = system: UO-31
[20] = system: SW-620
[21] = system: HT-29
[22] = system: MCF7
[23] = system: LOX IMVI
[24] = system: MOLT-4
[25] = system: U-251
[26] = system: HCT-15
[27] = system: OVCAR-8
[28] = system: 786-0
[29] = system: A498
[30] = system: DU-145
[31] = system: T47D
[32] = system: HCC 2998
[33] = system: ACHN
[34] = system: MDA-MB-231
[35] = system: SF-295
[36] = system: CAKI-1
[37] = system: SN12C
[38] = system: UACC-257
[39] = system: SK-MEL-5
[40] = system: EKVX
[41] = system: KM12
[42] = system: M14
[43] = system: SNB-75
[44] = system: RXF 393
[45] = system: NCI-H460
[46] = system: Hs-578T
[47] = system: NCI/ADR-RES
[48] = system: SF-268
[49] = system: SK-MEL-2
[50] = system: A549
[51] = system: MDA-N
[52] = system: IGROV-1
[53] = system: K562
[54] = system: SF-539
[55] = system: NCI-H226
[56] = system: MDA-MB-435
[57] = system: TK-10
[58] = system: Malme-3M
[59] = system: NCI-H522

Which GI50 [1] does the source give for `CCCCCCCCCCCCCCCC[N+](C)(C)CCl` here?
Its GI50 is 4.19 µM (inactive).

And the GI50 [2]?
The GI50 was 1.15 µM (inactive).

And the GI50 [3]?
The GI50 was 6.87 µM (inactive).

What about the GI50 [4] of the same compound?
Its GI50 is 2.17 µM (inactive).

And the GI50 [5]?
The GI50 was 5.19 µM (inactive).

What about the GI50 [6] of the same compound?
The GI50 was 1.17 µM (inactive).

And the GI50 [7]?
Its GI50 is 2.29 µM (inactive).

And the GI50 [8]?
Its GI50 is 1.66 µM (inactive).

What about the GI50 [9] of the same compound?
Its GI50 is 2.86 µM (inactive).

And the GI50 [10]?
Its GI50 is 2.29 µM (inactive).

And the GI50 [11]?
Its GI50 is 6.89 µM (inactive).

What about the GI50 [12] of the same compound?
Its GI50 is 2.29 µM (inactive).

And the GI50 [13]?
Its GI50 is 1.99 µM (inactive).

And the GI50 [14]?
The GI50 was 2.14 µM (inactive).

What about the GI50 [15] of the same compound?
The GI50 was 0.964 µM (active).

What about the GI50 [16] of the same compound?
Its GI50 is 1.65 µM (inactive).

What about the GI50 [17] of the same compound?
The GI50 was 3.03 µM (inactive).

And the GI50 [18]?
The GI50 was 1.76 µM (inactive).

What about the GI50 [19] of the same compound?
The GI50 was 11.1 µM (inactive).

And the GI50 [20]?
The GI50 was 2.69 µM (inactive).

And the GI50 [21]?
Its GI50 is 1.59 µM (inactive).

What about the GI50 [22] of the same compound?
Its GI50 is 2.69 µM (inactive).

And the GI50 [23]?
Its GI50 is 1.51 µM (inactive).

What about the GI50 [24] of the same compound?
The GI50 was 1.84 µM (inactive).

What about the GI50 [25] of the same compound?
Its GI50 is 1.68 µM (inactive).

And the GI50 [26]?
The GI50 was 3.59 µM.

What about the GI50 [27] of the same compound?
The GI50 was 2.61 µM (inactive).

And the GI50 [28]?
The GI50 was 1.55 µM (inactive).

What about the GI50 [29] of the same compound?
Its GI50 is 8.67 µM (inactive).

And the GI50 [30]?
The GI50 was 3.78 µM (inactive).

What about the GI50 [31] of the same compound?
The GI50 was 3.57 µM (inactive).

What about the GI50 [32] of the same compound?
Its GI50 is 1.66 µM (inactive).

And the GI50 [33]?
The GI50 was 2.66 µM (inactive).

What about the GI50 [34] of the same compound?
The GI50 was 2.02 µM (inactive).

And the GI50 [35]?
Its GI50 is 2.26 µM (inactive).

And the GI50 [36]?
The GI50 was 2.67 µM (inactive).

And the GI50 [37]?
The GI50 was 3.19 µM (inactive).

What about the GI50 [38] of the same compound?
Its GI50 is 4.71 µM (inactive).

And the GI50 [39]?
The GI50 was 1.68 µM (inactive).

What about the GI50 [40] of the same compound?
Its GI50 is 8.61 µM (inactive).

What about the GI50 [41] of the same compound?
Its GI50 is 1.46 µM (inactive).

What about the GI50 [42] of the same compound?
The GI50 was 2.31 µM (inactive).

What about the GI50 [43] of the same compound?
Its GI50 is 1.86 µM (inactive).

What about the GI50 [44] of the same compound?
Its GI50 is 1.32 µM (inactive).

And the GI50 [45]?
Its GI50 is 1.77 µM (inactive).

What about the GI50 [46] of the same compound?
The GI50 was 1.85 µM (inactive).

And the GI50 [47]?
The GI50 was 20.6 µM (inactive).

And the GI50 [48]?
Its GI50 is 2.74 µM (inactive).

And the GI50 [49]?
Its GI50 is 13.3 µM (inactive).

And the GI50 [50]?
The GI50 was 5 µM (inactive).

What about the GI50 [51] of the same compound?
Its GI50 is 3.72 µM (inactive).

And the GI50 [52]?
Its GI50 is 0.585 µM (active).

What about the GI50 [53] of the same compound?
The GI50 was 1.75 µM (inactive).

And the GI50 [54]?
The GI50 was 2.4 µM (inactive).

And the GI50 [55]?
Its GI50 is 2.12 µM (inactive).

And the GI50 [56]?
The GI50 was 3.07 µM (inactive).

What about the GI50 [57] of the same compound?
Its GI50 is 2.25 µM (inactive).

And the GI50 [58]?
The GI50 was 2.65 µM (inactive).

Which GI50 [1] does the source give for `COc1ccc(-c2cc3cc(Cl)cc(Cl)c3oc2=O)cc1OC` here?
The GI50 was 36.5 µM (inactive).

And the GI50 [2]?
The GI50 was > 100 µM (inactive).

What about the GI50 [3] of the same compound?
The GI50 was 74.8 µM (inactive).

And the GI50 [4]?
The GI50 was 46.9 µM (inactive).

What about the GI50 [5] of the same compound?
Its GI50 is 94.2 µM (inactive).

And the GI50 [6]?
The GI50 was 46.6 µM (inactive).

What about the GI50 [7] of the same compound?
The GI50 was 63.2 µM (inactive).

What about the GI50 [8] of the same compound?
The GI50 was 28.2 µM (inactive).

And the GI50 [9]?
The GI50 was 32.8 µM (inactive).

And the GI50 [10]?
Its GI50 is 57.3 µM (inactive).

And the GI50 [11]?
Its GI50 is > 100 µM (inactive).

And the GI50 [12]?
Its GI50 is 40 µM (inactive).

What about the GI50 [13] of the same compound?
The GI50 was 82 µM (inactive).

And the GI50 [14]?
The GI50 was 31.6 µM (inactive).

And the GI50 [15]?
Its GI50 is > 100 µM (inactive).

And the GI50 [16]?
The GI50 was > 100 µM (inactive).

And the GI50 [17]?
The GI50 was 29.4 µM (inactive).

And the GI50 [18]?
The GI50 was 63.5 µM (inactive).

What about the GI50 [19] of the same compound?
Its GI50 is 58.7 µM (inactive).

What about the GI50 [20] of the same compound?
The GI50 was > 100 µM (inactive).

And the GI50 [21]?
Its GI50 is 55.2 µM (inactive).

What about the GI50 [22] of the same compound?
The GI50 was 59.3 µM (inactive).

And the GI50 [23]?
The GI50 was > 100 µM (inactive).

And the GI50 [24]?
Its GI50 is > 100 µM (inactive).

And the GI50 [25]?
The GI50 was 37.2 µM (inactive).

What about the GI50 [26] of the same compound?
Its GI50 is 48.8 µM.

And the GI50 [27]?
The GI50 was 65.8 µM (inactive).

What about the GI50 [28] of the same compound?
Its GI50 is 35.3 µM (inactive).

And the GI50 [29]?
The GI50 was 79.1 µM (inactive).

What about the GI50 [30] of the same compound?
Its GI50 is > 100 µM (inactive).

What about the GI50 [31] of the same compound?
The GI50 was 46.8 µM (inactive).

What about the GI50 [32] of the same compound?
The GI50 was 44.7 µM (inactive).

And the GI50 [33]?
The GI50 was 37.7 µM (inactive).

And the GI50 [34]?
The GI50 was 62.7 µM (inactive).

What about the GI50 [35] of the same compound?
Its GI50 is 48.5 µM (inactive).

And the GI50 [36]?
Its GI50 is > 100 µM (inactive).

And the GI50 [37]?
Its GI50 is 39.8 µM (inactive).

What about the GI50 [38] of the same compound?
Its GI50 is 51.1 µM (inactive).

What about the GI50 [39] of the same compound?
Its GI50 is 28.8 µM (inactive).

And the GI50 [40]?
The GI50 was 92.9 µM (inactive).

And the GI50 [41]?
The GI50 was 31.6 µM (inactive).

And the GI50 [42]?
The GI50 was 60.3 µM (inactive).

What about the GI50 [44] of the same compound?
Its GI50 is 19.4 µM (inactive).

And the GI50 [45]?
Its GI50 is 36.7 µM (inactive).

What about the GI50 [46] of the same compound?
The GI50 was 31.4 µM (inactive).

What about the GI50 [47] of the same compound?
The GI50 was 56.9 µM (inactive).

What about the GI50 [48] of the same compound?
Its GI50 is 43.6 µM (inactive).

And the GI50 [49]?
The GI50 was > 100 µM (inactive).

What about the GI50 [50] of the same compound?
The GI50 was 92.3 µM (inactive).

What about the GI50 [51] of the same compound?
The GI50 was 94 µM (inactive).

What about the GI50 [52] of the same compound?
Its GI50 is 51.8 µM (inactive).

And the GI50 [53]?
The GI50 was 33.3 µM (inactive).

What about the GI50 [54] of the same compound?
The GI50 was 81.7 µM (inactive).

What about the GI50 [55] of the same compound?
Its GI50 is 43.9 µM (inactive).

What about the GI50 [56] of the same compound?
The GI50 was 65 µM (inactive).

And the GI50 [57]?
The GI50 was 44.9 µM (inactive).

And the GI50 [58]?
Its GI50 is 59.8 µM (inactive).

What about the GI50 [59] of the same compound?
The GI50 was 36.1 µM (inactive).
